Experimental data as given in article PMC12048343, “Discovery of a small molecule secreted clusterin enhancer that improves memory in Alzheimer’s disease mice” (npj Drug Discovery, 2025).
≈ marks a conversion by molar mass, not a printed value.

Assays:
[1] = tested on: sCLU secreted from human U-87 MG glioblastoma cells; assay: Human sCLU AlphaLISA on supernatant of U-87 MG cells (HTS, re-test, dose response); type: cell-based; conditions: Homo sapiens; U-87 MG cells, 30 h, AlphaLISA of supernatant; read-out: EC50 for sCLU increase
Procedure: Cell culture supernatant (2 μL) was added to a 384-well proxy plate preloaded with AlphaLISA HiBlock buffer (2 µL, 1X, CAT#AL004C, Perkin Elmer). Then an anti-sCLU antibody mixture (2 µL, mAb J84, biotinylated (10 nM, Cat# 3717-6-1000, Mabtech) and mAb CLU aa 22-227 (Cat#AF7084, R&D Systems), Acceptor bead conjugated (50 µg/mL, Cat#6772001, Perkin Elmer)) was added and incubated at room temperature for 1 hour. AlphaScreen Streptavidin Donor beads (2 µL, Cat#6760002S, Perkin Elmer) were added, incubated for an additional 30 min in the dark, and the plate was read in an Envision plate reader.
Human glioblastoma U-87 MG cells were proliferated in EMEM with 10% FBS and 1% P/S (complete medium) in 10 cm dishes until approximately 90% confluent. Following trypsinization, a suspension of 2 × 10^5 cells/mL (25 µL) were added to 384-well plates containing complete medium (25 µL) and library compounds from 9 plates (5 µM). After incubation for 30 h at 37 °C and 5% CO2, 2 μL of cell culture supernatant were analyzed via human sCLU AlphaLISA as described above. Cell culture medium and cells were added to the 384-well plates using the MultiDrop. The BioMek FX was used to pin the drugs and transfer the cell culture supernatant. The MANTIS liquid handler was used to added human sCLU AlphaLISA reagents.
Human glioblastoma U-87 MG cells were proliferated in EMEM with 10% FBS and 1% P/S (complete medium) in 10 cm dishes until approximately 90% confluent. […] After incubation for 30 hours at 37 °C and 5% CO2, 2 μL of cell culture supernatant were analyzed via human sCLU AlphaLISA as described above.

[2] = tested on: ApoE4TR-5XFAD murine model of AD; assay: Subchronic two-week oral study in ApoE4TR-5XFAD mice (hippocampus biomarkers, proteomics); type: in vivo, mouse; conditions: oral 15 mg/kg BID, two weeks, vs vehicle
Procedure: Brain tissue was homogenized and diluted to a protein concentration of 50 ng/mL. The Mouse Clusterin ELISA Kit (Cat#ab199079, Abcam) was performed according to the manufacturer’s protocol.
Additional assays: The Aβ1-42 ELISA assay was performed on hippocampus brain homogenate according to the manufacturer’s protocol (Fisher KHB3441). Humanin in cell culture lysate was quantify by ELISA assay, according to the manufacturer’s protocol (MyBioSourc Cat# MBS7607247). SirT1 in cell culture lysate was quantify using AlphaLISA. Cell lysate (2 μL) was added to a 384-well proxy plate preloaded with 2 µL anti-SiRT1 antibody mixture (ABCAM catalog AB110304, biotinylated (10 nM) and ABCAM catalog AB104833, acceptor bead conjugated (50 µg/mL, Cat#6772001, Perkin Elmer)) was added and incubated at room temperature for 1 hour. AlphaScreen Streptavidin Donor beads (2 µL, Cat#6760002S, Perkin Elmer) were added, incubated for an additional 30 min in the dark, and the plate was read in an Envision plate reader.
All procedures were performed in accordance with protocols approved by the UCLA Institutional Animal Care and Use Committee (IACUC) and guidelines of the NIH. Mouse strains used were C57BL/6 J (Black 6, Jackson Laboratory; JAX stock #000564). All non-AD mice were 4 to 5 mo old at the time of the experiments. […]

Kinetic solubility = type: physicochemical; conditions: aqueous buffer, kinetic from dmso stock, PBS pH 7.4, 37 °C, 100 µM nominal
Procedure: Test compound (10 mM, 100% DMSO) was diluted separately into aqueous buffer (100 µM; PBS pH 7.4) and DMSO at various concentrations (1000, 100, 10, 1, 0.1 µM). The solutions were then incubated at 37 °C for 90 min and centrifuged (16000xg, 5 min). An aliquot of each supernatant was analyzed by UV/Vis (if possible) or LC-MS/MS. A standard curve was made by plotting the known amount of analyte per standard in DMSO vs. absorbance or chromatographic peak area. Kinetic solubility (mM) was calculated using the trendline equation with maximum absorbance or chromatographic peak area observed in the aqueous sample.

For `Cc1sc2c(c1C)C(c1ccc(Cl)cc1)=N[C@@H](CC(=O)OC1CC1)c1nnc(C)n1-2` [DDL-357], the EC50 [1] was 223 nM, the Aβ1-42 in brain [2] was “the difference did not reach significance” and the “sCLU levels in the hippocampus” value [2] was “significant increase”. It also gave a solubility kinetic at 90 min (Kinetic solubility) of 80 µM (≈ 35.3 µg/mL).

For `Cc1sc2c(c1C)C(c1ccc(Cl)cc1)=N[C@@H](CC(=O)OC1COC1)c1nnc(C)n1-2` [DDL-356], the EC50 [1] was 178 nM and the solubility kinetic at 90 min (Kinetic solubility) was > 100 µM.
